The source made the active and inactive calls. No cut-off for these calls is given here.
Experiments:
Format in all cases: cell-based
[1] = molecular target: T1, Oxysterols receptor LXR-beta (Homo sapiens) (UniProt P55055); experiment: Agonist activity at Homo sapiens (human) LXRbeta expressed in HepG2 cells assessed as transactivation of ABCA1 gene expression after 48 hr by luciferase reporter gene assay
T1 sequence (whole entry): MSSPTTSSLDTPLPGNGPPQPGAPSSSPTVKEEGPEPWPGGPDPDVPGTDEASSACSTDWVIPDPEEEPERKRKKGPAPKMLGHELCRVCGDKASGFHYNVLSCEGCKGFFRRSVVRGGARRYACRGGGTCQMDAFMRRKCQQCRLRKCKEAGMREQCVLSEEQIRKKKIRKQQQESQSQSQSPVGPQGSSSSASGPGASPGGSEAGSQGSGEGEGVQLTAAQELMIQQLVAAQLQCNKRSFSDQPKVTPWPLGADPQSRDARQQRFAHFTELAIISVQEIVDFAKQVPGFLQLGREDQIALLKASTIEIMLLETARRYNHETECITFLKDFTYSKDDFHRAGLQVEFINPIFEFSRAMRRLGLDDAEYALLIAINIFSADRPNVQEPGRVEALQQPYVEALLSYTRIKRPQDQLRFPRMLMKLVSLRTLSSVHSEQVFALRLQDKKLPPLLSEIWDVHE

[2] = molecular target: T2, Oxysterols receptor LXR-alpha (Homo sapiens) (UniProt Q13133); experiment: Agonist activity at Homo sapiens (human) LXRalpha expressed in HepG2 cells assessed as transactivation of SREBP1c gene expression at 10 uM after 48 hr by luciferase reporter gene assay relative to control
T2 sequence (whole entry): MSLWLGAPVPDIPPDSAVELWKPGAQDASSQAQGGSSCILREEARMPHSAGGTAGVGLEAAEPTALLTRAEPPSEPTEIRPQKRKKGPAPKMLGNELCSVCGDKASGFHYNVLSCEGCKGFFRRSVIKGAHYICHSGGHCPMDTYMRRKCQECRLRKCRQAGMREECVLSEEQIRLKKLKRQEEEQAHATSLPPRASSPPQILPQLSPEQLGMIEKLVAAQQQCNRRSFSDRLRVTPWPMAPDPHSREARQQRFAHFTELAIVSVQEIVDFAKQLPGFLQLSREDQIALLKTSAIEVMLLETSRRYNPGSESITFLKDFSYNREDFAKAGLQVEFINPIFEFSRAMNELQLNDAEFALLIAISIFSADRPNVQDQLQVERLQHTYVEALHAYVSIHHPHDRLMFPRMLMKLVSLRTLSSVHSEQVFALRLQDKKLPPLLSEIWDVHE

[3] = molecular target: T3, Bile acid receptor (Homo sapiens) (UniProt Q96RI1); experiment: Agonist activity at Homo sapiens (human) FXR ligand binding domain expressed in HepG2 cells assessed as transactivation of SHP gene expression at 10 uM after 48 hr by luciferase reporter gene assay relative to control
T3 sequence (whole entry): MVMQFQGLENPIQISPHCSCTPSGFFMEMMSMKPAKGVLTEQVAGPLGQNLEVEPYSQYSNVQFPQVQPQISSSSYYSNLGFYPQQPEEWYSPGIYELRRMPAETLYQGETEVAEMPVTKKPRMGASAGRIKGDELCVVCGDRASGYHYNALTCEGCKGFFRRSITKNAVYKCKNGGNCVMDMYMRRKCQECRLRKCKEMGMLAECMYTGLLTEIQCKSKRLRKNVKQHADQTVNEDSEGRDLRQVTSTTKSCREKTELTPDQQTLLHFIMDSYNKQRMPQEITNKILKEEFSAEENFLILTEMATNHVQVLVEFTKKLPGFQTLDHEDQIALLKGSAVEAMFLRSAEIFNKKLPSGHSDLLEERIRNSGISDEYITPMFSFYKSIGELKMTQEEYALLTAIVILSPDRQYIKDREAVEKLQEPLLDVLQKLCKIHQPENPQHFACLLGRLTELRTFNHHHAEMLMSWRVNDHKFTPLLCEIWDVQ

[4] = molecular target: T2, Oxysterols receptor LXR-alpha (Homo sapiens); experiment: Agonist activity at Homo sapiens (human) LXRalpha expressed in HepG2 cells assessed as transactivation of SREBP1c gene expression after 48 hr by luciferase reporter gene assay
[5] = molecular target: T2, Oxysterols receptor LXR-alpha (Homo sapiens); experiment: Agonist activity at Homo sapiens (human) LXRalpha expressed in HepG2 cells assessed as transactivation of ABCA1 gene expression at 10 uM after 48 hr by luciferase reporter gene assay relative to control
[6] = molecular target: T3, Bile acid receptor (Homo sapiens); experiment: Agonist activity at Homo sapiens (human) FXR ligand binding domain expressed in HepG2 cells assessed as transactivation of GAL4 gene expression at 1 uM after 48 hr by luciferase reporter gene assay relative to control
[7] = molecular target: T2, Oxysterols receptor LXR-alpha (Homo sapiens); experiment: Agonist activity at Homo sapiens (human) LXRalpha expressed in HepG2 cells assessed as transrepression of PEPCK gene expression after 48 hr by luciferase reporter gene assay
[8] = molecular target: T2, Oxysterols receptor LXR-alpha (Homo sapiens); experiment: Agonist activity at Homo sapiens (human) LXRalpha expressed in HepG2 cells assessed as transactivation of ABCA1 gene expression after 48 hr by luciferase reporter gene assay
[9] = molecular target: T1, Oxysterols receptor LXR-beta (Homo sapiens); experiment: Agonist activity at Homo sapiens (human) LXRbeta expressed in HepG2 cells assessed as transactivation of ABCA1 gene expression at 10 uM after 48 hr by luciferase reporter gene assay relative to control
[10] = molecular target: T3, Bile acid receptor (Homo sapiens); experiment: Agonist activity at Homo sapiens (human) FXR ligand binding domain expressed in HepG2 cells assessed as transactivation of SHP gene expression at 100 nM after 48 hr by luciferase reporter gene assay relative to control
[11] = molecular target: T2, Oxysterols receptor LXR-alpha (Homo sapiens); experiment: Agonist activity at Homo sapiens (human) LXRalpha expressed in HepG2 cells assessed as transactivation of CYP7A1 gene expression at 10 uM after 48 hr by luciferase reporter gene assay relative to vehicle-treated control
[12] = molecular target: T3, Bile acid receptor (Homo sapiens); experiment: Agonist activity at Homo sapiens (human) FXR ligand binding domain expressed in HepG2 cells assessed as transactivation of GAL4 gene expression at 100 nM after 48 hr by luciferase reporter gene assay relative to control
[13] = molecular target: T1, Oxysterols receptor LXR-beta (Homo sapiens); experiment: Agonist activity at Homo sapiens (human) LXRbeta expressed in HepG2 cells assessed as transactivation of ABCA1 gene expression at 1 uM after 48 hr by luciferase reporter gene assay relative to control
HepG2 = experiment: Cytotoxicity against Homo sapiens (human) HepG2 cells after 48 hr; conditions: hepg2, 48 h
[14] = molecular target: T2, Oxysterols receptor LXR-alpha (Homo sapiens); experiment: Agonist activity at Homo sapiens (human) LXRalpha expressed in HepG2 cells assessed as decrease in PEPCK gene transactivation at 10 uM after 48 hr by luciferase reporter gene assay relative to control; set-up: scale not given: the % may be the effect or the level left
[15] = molecular target: T2, Oxysterols receptor LXR-alpha (Homo sapiens); experiment: Agonist activity at Homo sapiens (human) LXRalpha expressed in HepG2 cells assessed as PEPCK gene expression at 100 nM after 48 hr by luciferase reporter gene assay relative to control
[16] = molecular target: T2, Oxysterols receptor LXR-alpha (Homo sapiens); experiment: Agonist activity at Homo sapiens (human) LXRalpha expressed in HepG2 cells assessed as transactivation of SREBP1c gene expression at 1 uM after 48 hr by luciferase reporter gene assay relative to control

SMILES | Activity [1] | fold change (FC) [2] | fold change (FC) [3] | Activity [4] | fold change (FC) [5] | fold change (FC) [6] | Activity [7] | Activity [8] | fold change (FC) [9] | Activity [10] | fold change (FC) [11] | Activity [12] | fold change (FC) [13] | Activity (HepG2) | Activity [14] | Activity [15] | fold change (FC) [16] | fold change (FC) [15]
C=C1C(=O)O[C@@H]2C[C@H](C)[C@@]3(O)C[C@H](O)[C@@](C)(C[C@@H](OC(=O)C(C)C)[C@@H]12)O3 [TAGITININ A] | Dose-dependent effect | 3.42 | 2.3 | Dose-dependent effect | 1.9 | 1.6 | Dose-dependent effect | Dose-dependent effect | 1.5 | inactive | 2 | inactive | 1.5 | Non-toxic | 58% | inactive | 2.26 | 
C=C1C(=O)O[C@@H]2/C=C(/C)C(=O)/C=C/[C@](C)(O)C[C@@H](OC(=O)C(C)C)[C@@H]12 [TAGITININ C] |  |  |  |  |  |  |  |  |  |  |  |  |  | Toxic |  |  |  | 
C=C1C(=O)O[C@@H]2C[C@H](C)[C@@]3(O)CC[C@@](C)(C[C@@H](OC(=O)C(C)C)[C@@H]12)O3 [TIROTUNDIN] | Dose-dependent effect | 4.52 | 2.41 | Dose-dependent effect | 1.7 | 1.6 | Dose-dependent effect | Dose-dependent effect | 2.2 | inactive | 2 | inactive | 1.5 | Non-toxic | 46% |  | 2.3 | 0.94
